Experimental data from ChEMBL document CHEMBL1201862, “PubChem BioAssay data set” (2004).
Calls of active or inactive are those of the source.

Tests used:
[1] = viability loss in HeLa cells – cytotoxicity control for MgcRacGAP inhibitor project, dose response (AID 624300); type: functional
[2] = molecular target: T1, Rac GTPase-activating protein 1 (Homo sapiens, UniProt Q9H0H5); experiment: blockers of MgcRacGAP-driven Rac1 GTP hydrolysis – biochemical, ADP Hunter fluorescence, primary and confirmatory, confirmation (AID 624330); type: functional
T1 sequence (Q9H0H5 whole entry): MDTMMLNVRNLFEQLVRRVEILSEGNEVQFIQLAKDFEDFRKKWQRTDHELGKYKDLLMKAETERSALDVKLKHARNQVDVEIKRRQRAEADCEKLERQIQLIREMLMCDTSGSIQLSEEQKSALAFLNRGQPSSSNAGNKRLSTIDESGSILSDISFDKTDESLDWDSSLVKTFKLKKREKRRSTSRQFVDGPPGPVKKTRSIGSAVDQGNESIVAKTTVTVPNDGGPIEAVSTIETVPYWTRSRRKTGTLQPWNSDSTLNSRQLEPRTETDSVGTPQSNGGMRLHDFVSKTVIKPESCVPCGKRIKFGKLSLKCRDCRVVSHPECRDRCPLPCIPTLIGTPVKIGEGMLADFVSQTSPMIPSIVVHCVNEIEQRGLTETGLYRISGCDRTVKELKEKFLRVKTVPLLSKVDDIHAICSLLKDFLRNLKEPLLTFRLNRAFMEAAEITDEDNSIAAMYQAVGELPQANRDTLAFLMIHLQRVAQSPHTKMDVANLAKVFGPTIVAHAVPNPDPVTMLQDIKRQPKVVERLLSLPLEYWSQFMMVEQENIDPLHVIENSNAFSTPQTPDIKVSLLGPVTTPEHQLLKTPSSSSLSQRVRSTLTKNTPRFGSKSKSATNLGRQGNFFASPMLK

[3] = molecular target: T2, Calpain-2 catalytic subunit (Sus scrofa, UniProt P43367); experiment: m-calpain protease blockers, concentration series – biochemical, fluorogenic peptide substrate, dose response (AID 1420); type: functional
T2 sequence (P43367 whole entry): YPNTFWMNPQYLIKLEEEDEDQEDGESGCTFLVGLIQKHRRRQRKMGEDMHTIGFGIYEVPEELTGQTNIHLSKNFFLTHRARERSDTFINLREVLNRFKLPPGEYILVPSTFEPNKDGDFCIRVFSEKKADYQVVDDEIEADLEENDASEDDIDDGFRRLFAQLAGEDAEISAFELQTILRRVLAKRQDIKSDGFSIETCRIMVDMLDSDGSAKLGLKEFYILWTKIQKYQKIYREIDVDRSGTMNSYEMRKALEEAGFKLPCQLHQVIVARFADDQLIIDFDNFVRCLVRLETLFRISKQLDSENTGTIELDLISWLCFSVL

[4] = viability inhibitors of stage V gametocytes – luminescence, dose response (AID 1117278); type: functional, cell-based;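 note: gametocytes exposed to compound for 24 hours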
[5] = viability loss in human Jurkat cells – cell-based, luminescence, cytotoxicity control for P. falciparum gametocyte viability project, dose response (AID 1117277); type: functional;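 note: potency reflects loss of cellular ATP meaning fewer viable cells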
[6] = A Cell Based Secondary Assay To Explore Cytotoxicity of Compounds that Sensitize Mycobacterium Tuberculosis to Beta-Lactam Antibiotics.; type: functional
[7] = tested on: HeLa; experiment: viability loss in HeLa cells – cell-based, 24 h, cherry-picked samples, cytotoxicity control, dose response (AID 504726); type: functional; settings: Homo sapiens;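 note: potency for cytotoxicity as loss of luminescence signal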
[8] = A549 cell cytotoxicity, dose response, cytotoxicity control, plate reader, cherry-pick, antagonist series (AID 743412); type: functional, cell-based
[9] = toxicity toward HepG2 liver cells – cell-based, plate reader, cherry-pick, antagonist series, cytotoxicity control, dose response (AID 743416); type: functional
[10] = blockers of bursicon-stimulated LGR2 cAMP reporter – cell-based, HEK293, CRE-luciferase reporter, cherry pick, set 2, dose response (AID 743343); type: functional;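 note: transfected cells were stimulated with diluted bursicon conditioned medium after compound addition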
[11] = blockade of melanocortin 4 receptor signaling – cell-based, plate reader, cherry pick, counter-screen for LGR2 antagonist project, dose response (AID 743444); type: functional;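 note: transfected HEK 293 cells stimulated with alpha-MSH peptide; potency of inhibitors of the alpha-MSH evoked signal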
[12] = viability loss in HEK293 cells – cell-based, plate reader, cherry-picked samples, cytotoxicity control, dose response (AID 743446); type: functional
[13] = HIV-1 Vif–A3G interaction blockers – biochemical, TR-FRET, GST-Vif 1-94, biotin-A3G peptide, dose response retest, primary screen (AID 1117319); type: functional;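 note: TR-FRET signal of purified GST-Vif binding a biotinylated A3G peptide; inhibitors lower the FRET signal by blocking Vif and A3G binding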
[14] = Luminescence Cell-Based Dose Retest to Confirm Inhibitors of Cancer Stem Cells. [Related pubchem assays (depositor defined):AID2717, AID2721]; type: functional; settings: Homo sapiens
[15] = molecular target: Heat shock protein HSP 90-alpha (Homo sapiens, UniProt P07900); type: functional, organism-based
[16] = molecular target: Large T antigen (Simian virus 40, UniProt P03070); type: functional, Betapolyomavirus macacae;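 note: Confirmatory-stage PubChem screen for compounds that inhibit SV40 T antigen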
[17] = growth inhibition of yeast DHODH-expressing 3D7 parasites – SYBR Green, dry powder samples, dose response (AID 1159570); type: functional, cell-based;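 note: parasite growth measured after 72 hours of compound exposure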
[18] = P. falciparum Dd2 growth inhibitors, dose response, SYBR Green, cherry-picked samples (AID 1159567); type: functional, cell-based
[19] = Dd2 malaria parasite growth inhibition potency – SYBR Green, dry powder samples, dose response (AID 1159566); type: functional, cell-based;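 note: potency for growth inhibition with lower SYBR green DNA signal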
[20] = growth inhibition of PfATP4-mutant resistant parasites – NITD609-resistant line, SYBR Green, dry powder, dose response (AID 1159571); type: functional, cell-based;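 note: parasites synchronized at ring stage by sorbitol before testing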
[21] = molecular target: Cytochrome P450 2C19 (Homo sapiens, UniProt P33261); experiment: Cytochrome panel assay with activity outcomes. Panel member name: p450-cyp2c19 Compounds with AC50 equal or less than 10 uM are considered active; type: functional; settings: read-out: AC50
[22] = molecular target: Cytochrome P450 2D6 (Homo sapiens, UniProt P10635);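 note: CYP2D6 member of a cytochrome P450 panel assay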
[23] = Trypanosoma cruzi growth suppression in host cells – NIH3T3 host cells, beta-gal luminescence, confirmation (AID 2044); type: functional, cell-based;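 note: intracellular parasites grown in NIH/3T3 mouse fibroblasts as host cells; luminescent beta-galactosidase reporter signal from transgenic T. cruzi replicating inside host cells; inhibitors lower the luminescence signal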
[24] = NIH3T3 cell viability loss – ATP luminescence, mouse fibroblasts, counter-screen, dose response (AID 2010); type: functional, cell-based;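 note: cells exposed to compound for about 90 hours before reading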
[25] = molecular target: T3, Aminopeptidase N (Plasmodium falciparum FcB1/Columbia, UniProt O96935); experiment: malaria alanyl aminopeptidase activity blockers – biochemical, fluorogenic H-Leu-NHMec substrate, 1536-well (AID 1445); set-up: species or system Plasmodium falciparum 3D7, 3D7
T3 sequence (O96935 whole entry): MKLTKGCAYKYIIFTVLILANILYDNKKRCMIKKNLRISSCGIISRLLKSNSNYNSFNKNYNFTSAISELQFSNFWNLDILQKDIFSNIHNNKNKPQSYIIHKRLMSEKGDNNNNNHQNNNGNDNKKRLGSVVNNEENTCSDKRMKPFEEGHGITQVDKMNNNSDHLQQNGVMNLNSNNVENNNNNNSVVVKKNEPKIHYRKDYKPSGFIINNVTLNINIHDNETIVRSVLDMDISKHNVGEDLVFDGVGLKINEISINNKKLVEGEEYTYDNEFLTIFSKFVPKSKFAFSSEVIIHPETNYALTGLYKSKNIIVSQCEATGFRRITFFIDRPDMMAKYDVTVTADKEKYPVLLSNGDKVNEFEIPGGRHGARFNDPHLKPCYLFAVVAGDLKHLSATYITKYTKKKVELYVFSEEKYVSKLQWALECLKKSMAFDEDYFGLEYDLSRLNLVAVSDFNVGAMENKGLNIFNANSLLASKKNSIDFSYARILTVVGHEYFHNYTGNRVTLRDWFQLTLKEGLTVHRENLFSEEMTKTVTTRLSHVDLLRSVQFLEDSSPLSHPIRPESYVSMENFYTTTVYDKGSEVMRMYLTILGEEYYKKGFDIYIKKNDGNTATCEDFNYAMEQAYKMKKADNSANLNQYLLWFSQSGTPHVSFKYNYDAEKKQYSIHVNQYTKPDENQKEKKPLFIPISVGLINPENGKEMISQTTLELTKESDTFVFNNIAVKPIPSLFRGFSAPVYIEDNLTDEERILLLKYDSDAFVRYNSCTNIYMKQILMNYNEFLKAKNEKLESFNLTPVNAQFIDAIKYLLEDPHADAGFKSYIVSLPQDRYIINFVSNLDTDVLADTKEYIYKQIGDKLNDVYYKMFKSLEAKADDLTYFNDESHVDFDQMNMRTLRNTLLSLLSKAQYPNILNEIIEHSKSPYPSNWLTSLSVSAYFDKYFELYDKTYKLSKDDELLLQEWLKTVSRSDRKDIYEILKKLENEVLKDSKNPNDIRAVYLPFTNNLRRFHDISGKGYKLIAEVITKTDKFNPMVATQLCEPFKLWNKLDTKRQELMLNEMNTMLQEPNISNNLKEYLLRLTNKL

Chain of Large T antigen (P03070 whole entry): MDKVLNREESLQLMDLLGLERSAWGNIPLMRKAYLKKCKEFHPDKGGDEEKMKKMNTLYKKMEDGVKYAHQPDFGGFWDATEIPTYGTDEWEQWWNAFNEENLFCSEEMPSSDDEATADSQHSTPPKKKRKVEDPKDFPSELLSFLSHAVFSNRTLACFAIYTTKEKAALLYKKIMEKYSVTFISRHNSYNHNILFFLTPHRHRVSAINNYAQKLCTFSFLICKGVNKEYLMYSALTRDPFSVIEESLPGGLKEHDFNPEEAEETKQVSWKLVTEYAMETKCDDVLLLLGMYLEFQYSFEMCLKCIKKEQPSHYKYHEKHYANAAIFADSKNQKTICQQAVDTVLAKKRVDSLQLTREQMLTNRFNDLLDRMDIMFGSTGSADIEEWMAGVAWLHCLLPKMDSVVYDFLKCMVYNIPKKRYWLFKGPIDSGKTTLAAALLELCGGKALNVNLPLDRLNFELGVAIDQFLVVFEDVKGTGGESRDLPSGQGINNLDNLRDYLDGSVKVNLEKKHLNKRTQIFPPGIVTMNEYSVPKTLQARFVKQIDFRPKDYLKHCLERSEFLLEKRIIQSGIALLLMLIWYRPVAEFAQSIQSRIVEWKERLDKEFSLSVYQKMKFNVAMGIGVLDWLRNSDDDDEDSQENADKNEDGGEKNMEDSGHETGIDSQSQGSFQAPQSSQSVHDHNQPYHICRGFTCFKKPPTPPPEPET
Chain of Cytochrome P450 2D6 (P10635 whole entry): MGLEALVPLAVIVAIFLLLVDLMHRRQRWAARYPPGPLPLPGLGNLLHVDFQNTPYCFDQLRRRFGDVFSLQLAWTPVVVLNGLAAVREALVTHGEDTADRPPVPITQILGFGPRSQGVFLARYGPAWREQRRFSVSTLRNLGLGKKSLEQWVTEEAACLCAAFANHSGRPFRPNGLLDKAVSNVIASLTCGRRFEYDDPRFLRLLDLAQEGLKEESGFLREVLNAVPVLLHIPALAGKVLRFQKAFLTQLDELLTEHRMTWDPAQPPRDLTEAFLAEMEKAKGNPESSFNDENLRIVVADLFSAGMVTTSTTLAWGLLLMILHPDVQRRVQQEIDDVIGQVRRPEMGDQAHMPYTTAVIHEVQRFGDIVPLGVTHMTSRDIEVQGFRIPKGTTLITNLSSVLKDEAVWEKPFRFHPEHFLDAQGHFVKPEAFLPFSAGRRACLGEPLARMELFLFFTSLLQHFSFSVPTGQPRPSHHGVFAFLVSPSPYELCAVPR
Chain of Cytochrome P450 2C19 (P33261 whole entry): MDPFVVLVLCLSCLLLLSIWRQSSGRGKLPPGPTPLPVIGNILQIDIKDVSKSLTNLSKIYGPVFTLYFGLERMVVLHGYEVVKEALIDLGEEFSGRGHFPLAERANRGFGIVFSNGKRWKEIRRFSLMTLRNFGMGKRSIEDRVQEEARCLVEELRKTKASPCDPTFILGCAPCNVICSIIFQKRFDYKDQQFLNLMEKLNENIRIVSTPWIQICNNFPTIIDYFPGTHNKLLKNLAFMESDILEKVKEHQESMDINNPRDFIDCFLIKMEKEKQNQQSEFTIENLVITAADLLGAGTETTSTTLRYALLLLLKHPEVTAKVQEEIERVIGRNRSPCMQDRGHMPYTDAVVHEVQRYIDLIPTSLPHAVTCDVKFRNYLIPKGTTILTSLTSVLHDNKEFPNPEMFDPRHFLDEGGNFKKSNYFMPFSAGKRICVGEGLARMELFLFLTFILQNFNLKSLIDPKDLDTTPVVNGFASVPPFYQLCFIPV

Cc1cc(Cl)cc(C)c1OCCOCCNCc1ccccc1
CC50 [1]: 100 µM (active) | IC50 [2]: 128 µM (active)

CCc1nc(C)ccc1OC(=O)C12CC3CC(CC(C3)C1)C2
IC50 [3]: 8.73 µM (not active)

C1CCN(CCCNC2C3CC4CC(C3)CC2C4)C1 (configuration not stated)
IC50 [4]: > 109 µM (inactive) | IC50 [5]: > 83.3 µM (inactive)

O=C(/C=C/c1ccc2c(c1)OCO2)Nc1nc2ccccc2s1
CC50 [6]: > 40 µM (active)

CC1=[N+](C)N(c2ccccc2)C(=O)C1/N=C/C=C/c1ccccc1 (configuration not stated)
AC50 [7]: 308 µM (active)

COc1ccc(CN2CCN(Cc3ccccc3)CC2)c(OC)c1
IC50 [4]: > 109 µM (inactive) | IC50 [5]: > 83.3 µM (inactive)

COc1ccc(C(=O)Nc2nc3ccccc3[nH]2)cc1
AC50 [8]: 34.6 µM (active) | AC50 [9]: > 52 µM (inactive) | AC50 [10]: 2.45 µM (active) | AC50 [11]: 2.84 µM (active) | AC50 [12]: > 52 µM (inactive)

CCOc1cccc(SCc2noc(C(=O)NCC3CCCO3)c2C(=O)O)c1 (configuration not stated)
IC50 [13]: > 100 µM (active)

CC(=O)Nc1nonc1-c1nc2ccccc2n1CCC(C)C
CC50 [6]: > 40 µM (active)

Cc1cc2ccccn2c1C(=O)c1ccc([N+](=O)[O-])o1
CC50 [6]: 8.69 µM (active) | AC50 [14]: 2.84 µM (active) | AC50 [15]: 3.38 µM (active)

COc1cc(-c2nc3cnccn3c2Nc2ccccc2)ccc1O
IC50 [16]: 5.05 µM (active)

CN(Cc1nc(-c2cnccn2)no1)Cc1[nH]nc2c1CCCC2
IC50 [3]: 7.73 µM (not active)

Cc1ccc(N=Nc2ccc(N)cc2C)c(S(N)(=O)=O)c1
IC50 [13]: > 100 µM (active)

Oc1nc(-c2ccccc2Cl)nc2c1sc(=S)n2-c1ccccc1
IC50 [3]: 41.7 µM (not active)

COc1ccc(OC)c(/C(O)=C/C(=O)C(=O)Nc2ccccc2OC)c1
IC50 [13]: > 100 µM (active)

CCn1c(SCC(=O)n2c(C)c(C)c3ccccc32)nnc1-c1ccco1
IC50 [13]: > 100 µM (active)

N#C/C(=C\c1ccc(-c2ccccc2[N+](=O)[O-])o1)C(N)=O
AC50 [7]: 83.5 µM (active)

C[C@@H]1CN([C@H](C)CO)C(=O)c2cc(/C=C/c3ccccc3)cnc2O[C@H]1CN(C)C(=O)NC1CCCCC1
AC50 [17]: 2.03 µM (active) | AC50 [18]: 2.73 µM (active) | AC50 [19]: 1.06 µM (active) | AC50 [20]: 1.76 µM (active)

O=C1NC(=O)N(Cc2ccc(F)cc2)C(=O)/C1=C\c1ccoc1
IC50 [16]: 56.4 µM (active)

O=C(CCN1CCOCC1)c1ccc(N2CCCCC2)cc1
CC50 [6]: 29.2 µM (active)

Nc1ccc(Cn2ccc3c4c(N)nc(N)nc4ccc32)cc1
CC50 [1]: 49.5 µM (active) | IC50 [2]: 77 µM (active)

Cc1cc(C(=O)NCc2cccnc2)no1
IC50 [4]: > 109 µM (inactive) | IC50 [5]: > 83.3 µM (inactive)

COC(=O)C1=C(c2ccc(OC(F)(F)F)cc2)C[C@@H]2CC[C@H]1N2C(=O)NC1CCCCC1
AC50 [7]: > 350 µM (inactive)

Cc1[nH]c2c(C)cccc2c1CCNC(=O)c1ccc2c(c1[N+](=O)[O-])C(=O)c1ccccc1C2=O
CC50 [6]: 17.2 µM (active) | AC50 [21]: 0.398 µM (inconclusive) | AC50 [22]: 2 µM (inconclusive)

CCCCN(CC)CCNC(=O)CN(C)S(=O)(=O)c1ccc2c(c1)c(=O)n(C)c(=O)n2C
IC50 [4]: > 109 µM (inactive) | IC50 [5]: > 83.3 µM (inactive)

CCC(CC)C(=O)Nc1ccc(S(=O)(=O)Nc2nccs2)cc1
IC50 [3]: 11.7 µM (not active)

Cc1ccc(CN2CCN(Cc3ccccc3C(F)(F)F)CC2)cc1
CC50 [1]: 100 µM (active) | IC50 [2]: 40.4 µM (active)

CCS(=O)(=O)NCC(c1cccnc1)N1CCN(c2ccc(OC)cc2)CC1 (configuration not stated)
EC50 [23]: 0.916 µM (active) | IC50 [3]: 24.7 µM (not active) | EC50 [24]: 22 µM (active)

CN(C)S(=O)(=O)N(CC(=O)Nc1ccccc1)c1ccccc1
IC50 [4]: > 109 µM (inactive) | IC50 [5]: > 83.3 µM (inactive)

COc1cc(/C=N/N2C(=O)CSC2=S)cc(Br)c1O
IC50 [25]: 107 µM (active) | IC50 [16]: 12.8 µM (active)
